Assay results from patent publication US20070072831A1, “Integrase inhibitor compounds” (GILEAD SCIENCES, INC., priority 2005, published 2007).

Columns and labels:
HIV-IIIb = assay: Antiviral assay in MT-4 cells infected with HIV-IIIb; assay type: cell-based; settings: MT4, 120 h; MT-4 cells, HIV-IIIb, 5 days; read-out: EC50 Range MT-4
Procedure: See: Wolfe, etal J. Virol.
Antiviral Assays in MT2 and MT4 Cells
For the antiviral assay utilizing MT-2 cells, 50 μl of 2× test concentration of 5-fold serially diluted compound in culture medium with 10% FBS was added to each well of a 96-well plate (9 concentrations) in triplicate. MT-2 cells were infected with HIV-IIIb at a multiplicity of infection (m.o.i) of 0.01 for 3 hours. Fifty microliters of infected cell suspension in culture medium with 10% FBS (˜1.5×10^4 cells) was then added to each well containing 50 μl of diluted compound. The plates were then incubated at 37° C. for 5 days. For the antiviral assay utilizing MT-4 cells, 20 μl of 2× test concentration of 5-fold serially diluted compound in culture medium with 10% FBS was added to each well of a 384-well plate (7 concentrations) in triplicate. MT-4 cells were next mixed with HIV-IIIb at an m.o.i. of 0.1 and 20 μl of virus/cell mixture (˜2000 cells) was immediately added to each well containing 20 μl of diluted compound. The plates were then incubated at 37° C. for 5 days. After 5 days of incubation, 100 μl of CellTiter-Glo™ Reagent (catalog # G7571, Promega Biosciences, Inc., Madison, Wis.) was added to each well containing MT-2 cells and 40 μl to each well containing MT-4 cells. Cell lysis was carried out by incubating at room temperature for 10 min and then chemiluminescence was read.

HIV integrase = HIV integrase (Human immunodeficiency virus type 1 group M subtype B, UniProt P04585); assay: biochemical
Procedure: Representative compounds of the invention were tested for biological activity by methods including anti-HIV assay, measuring inhibition of HIV-integrase strand transfer catalysis, and cytotoxicity.
HIV Integrase Assay (IC50 Determination)
The HIV Integrase assay is carried out in Reacti-Bind High Binding Capacity Streptavidin coated plates (Pierce # 15502) in 100 μl reactions. The wells of the plate are rinsed once with PBS. Each well is then coated at room temperature for 1 h with 100 μl of 0.14 μM Donor DNA with the following sequence:
After coating, the plate was washed twice with PBS. 3′processing of the Donor DNA is started by adding 80 μl of Integrase/buffer mixture (25 mM HEPES, pH 7.3, 12.5 mM DTT, 93.75 mM NaCl, 12.5 mM MgCl2, 1.25% Glycerol, 0.3125 uM integrase) to each well. 3′processing is allowed to proceed for 30 min at 37° C., after which, 10 μl of test compound and 10 μl of 2.5 uM DIG-labeled Target DNA with the following sequence:
are added to each well to allow strand transfer to proceed for 30 min at 37° C. The plate is then washed three times with 2×SSC for 5 min and rinsed once with PBS. For detection of integrated product, 100 μl of a 1/2000 dilution of HRP-conjugated anti-DIG antibody (Pierce #31468) are added to each well and incubated for 1 hour. The plate was then washed three times for 5 min each, with 0.05% Tween-20 in PBS. For signal development and amplification, 100 μl of SuperSignal ELISA Femto Substrate (Pierce #37075) are added to each well. Chemiluminescence (in relative light units) is read immediately at 425 nm in the SPECTRAmax GEMINI Microplate Spectrophotometer using the end point mode at 5 sec per well.
For IC50 determinations, eight concentrations of test compounds in a 1/2.2 dilution series are used.

CCN(c1c2c(c(O)c3ncccc13)C(=O)N(Cc1ccc(F)cc1)C2)S(C)(=O)=O [Compound 78, N-ethyl-N-(7-(4-fluorobenzyl)-9-hydroxy-8-oxo-7,8-dihydro-6H-pyrrolo[3,4]quinolin-5-yl)methanesulfonamide]
EC50 (HIV-IIIb): < 60 nM | IC50 (HIV integrase): < 60 nM

CNC(=O)c1cc(F)ccc1CN1Cc2c(c(O)c3ncccc3c2N(C)S(C)(=O)=O)C1=O [Compound 88]
EC50 (HIV-IIIb): < 60 nM | IC50 (HIV integrase): 60 to 1000 nM

CN(C)C(=O)c1cc(F)ccc1CN1Cc2c(c(O)c3ncccc3c2N(C)S(C)(=O)=O)C1=O [Compound 90, 5-fluoro-2-((9-hydroxy-5-(N-methylmethylsulfonamido)-8-oxo-6H-pyrrolo[3,4-g]quinolin-7(8H)-yl)methyl)-N,N-dimethylbenzamide]
EC50 (HIV-IIIb): < 60 nM | IC50 (HIV integrase): 60 to 1000 nM

CN(c1c2c(c(O)c3ncccc13)C(=O)N(Cc1ccncc1)C2)S(C)(=O)=O [Compound 92, N-(9-hydroxy-8-oxo-7-(pyridin-4-ylmethyl)-7,8-dihydro-6H-pyrrolo[3,4-g]quinolin-5-yl)-N-methylmethanesulfonamide]
EC50 (HIV-IIIb): > 1000 nM | IC50 (HIV integrase): > 1000 nM

CN(c1c2c(c(O)c3ncccc13)C(=O)N(Cc1ccccn1)C2)S(C)(=O)=O [Compound 94, N-(9-hydroxy-8-oxo-7-(pyridin-2-ylmethyl)-7,8-dihydro-6H-pyrrolo[3,4-g]quinolin-5-yl)-N-methylmethanesulfonamide]
EC50 (HIV-IIIb): < 60 nM | IC50 (HIV integrase): 60 to 1000 nM

CN(c1c2c(c(O)c3ncccc13)C(=O)N(Cc1ccc(F)nc1)C2)S(C)(=O)=O [Compound 97, N-(7-((6-fluoropyridin-3-yl)methyl)-9-hydroxy-8-oxo-7,8-dihydro-6H-pyrrolo[3,4-g]quinolin-5-yl)-N-methylmethanesulfonamide]
EC50 (HIV-IIIb): 60 to 1000 nM | IC50 (HIV integrase): 60 to 1000 nM

CN(c1c2c(c(O)c3ncccc13)C(=O)N(Cc1ccc(F)cc1C#N)C2)S(C)(=O)=O [Compound 100, N-(7-(2-cyano-4-fluorobenzyl)-9-hydroxy-8-oxo-7,8-dihydro-6H-pyrrolo[3,4-g]quinolin-5-yl)-N-methylmethanesulfonamide]
EC50 (HIV-IIIb): 60 to 1000 nM | IC50 (HIV integrase): 60 to 1000 nM

CN(c1c2c(c(O)c3ncccc13)C(=O)N(Cc1ccc(F)cc1N)C2)S(C)(=O)=O [Compound 103, N-(7-(2-amino-4-fluorobenzyl)-9-hydroxy-8-oxo-7,8-dihydro-6H-pyrrolo[3,4-g]quinolin-5-yl)-N-methylmethanesulfonamide]
EC50 (HIV-IIIb): < 60 nM | IC50 (HIV integrase): < 60 nM

CN(c1c2c(c(O)c3ncccc13)C(=O)N(Cc1ccc(F)cc1S(C)(=O)=O)C2)S(C)(=O)=O [Compound 106, N-(7-(4-fluoro-2-(methylsulfonyl)benzyl)-9-hydroxy-8-oxo-7,8-dihydro-6H-pyrrolo[3,4-g]quinolin-5-yl)-N-methylmethanesulfonamide]
EC50 (HIV-IIIb): < 60 nM | IC50 (HIV integrase): 60 to 1000 nM

CN(c1c2c(c(O)c3ncccc13)C(=O)N(Cc1ccc(F)cc1S(=O)(=O)N(C)C)C2)S(C)(=O)=O [Compound 109, 5-fluoro-2-((9-(hydroxy)-5-(N-methylmethylsulfonamido)-8-oxo-6H-pyrrolo[3,4-g]quinolin-7(8H)-yl)methyl)-N,N-dimethylbenzenesulfonamide]
EC50 (HIV-IIIb): < 60 nM | IC50 (HIV integrase): 60 to 1000 nM

CCOC(=O)N(C)c1c2c(c(O)c3ncccc13)C(=O)N(Cc1ccc(F)cc1)C2 [Compound 112, ethyl 7-(4-fluorobenzyl)-9-(hydroxy)-8-oxo-7,8-dihydro-6H-pyrrolo[3,4-g]quinolin-5-yl(methyl)carbamate]
EC50 (HIV-IIIb): < 60 nM | IC50 (HIV integrase): < 60 nM

CCOC(=O)N(C)c1c2c(c(O)c3ncccc13)C(=O)N(Cc1ccc(F)cc1)C2C (stereo not drawn) [Compound 114, ethyl 7-(4-fluorobenzyl)-9-hydroxy-6-methyl-8-oxo-7,8-dihydro-6H-pyrrolo[3,4-g]quinolin-5-yl(methyl)carbamate]
EC50 (HIV-IIIb): 60 to 1000 nM | IC50 (HIV integrase): 60 to 1000 nM

CCOC(=O)N(C)c1c2c(c(O)c3ncccc13)C(=O)N(Cc1ccc(F)cc1)C2(C)C [Compound 115, ethyl 7-(4-fluorobenzyl)-9-hydroxy-6,6-dimethyl-8-oxo-7,8-dihydro-6H-pyrrolo[3,4-g]quinolin-5-yl(methyl)carbamate]
EC50 (HIV-IIIb): > 1000 nM | IC50 (HIV integrase): 60 to 1000 nM

CS(=O)(=O)Nc1c2c(c(O)c3ncccc13)C(=O)N(Cc1ccc(F)cc1)C2 [Compound 125, N-(7-(4-fluorobenzyl)-9-hydroxy-8-oxo-7,8-dihydro-6H-pyrrolo[3,4-g]quinolin-5-yl)methanesulfonamide]
EC50 (HIV-IIIb): 60 to 1000 nM | IC50 (HIV integrase): < 60 nM

CN(c1c2c(c(O)c3ncccc13)C(=O)N(Cc1ccc(F)cc1)C2)S(N)(=O)=O [Compound 132, N-(7-(4-fluorobenzyl)-9-hydroxy-8-oxo-7,8-dihydro-6H-pyrrolo[3,4-g]quinolin-5-yl)-N-methylsulfamide]
EC50 (HIV-IIIb): < 60 nM | IC50 (HIV integrase): < 60 nM

CN(Cc1ccccc1)S(=O)(=O)N(C)c1c2c(c(O)c3ncccc13)C(=O)N(Cc1ccc(F)cc1)C2 [Compound 135, N′-benzyl-N′-methyl-N-(7-(4-fluorobenzyl)-9-hydroxy-8-oxo-7,8-dihydro-6H-pyrrolo[3,4-g]quinolin-5-yl)-N-methylsulfamide]
EC50 (HIV-IIIb): 60 to 1000 nM | IC50 (HIV integrase): 60 to 1000 nM

CN(Cc1ccncc1)S(=O)(=O)N(C)c1c2c(c(O)c3ncccc13)C(=O)N(Cc1ccc(F)cc1)C2 [Compound 136, N-(7-(4-fluorobenzyl)-9-hydroxy-8-oxo-7,8-dihydro-6H-pyrrolo[3,4-g]quinolin-5-yl)-N-methyl-N′-methyl-N′-(pyridin-4-ylmethyl)sulfamide]
EC50 (HIV-IIIb): 60 to 1000 nM | IC50 (HIV integrase): 60 to 1000 nM

COc1ccc(CN2Cc3c(c(O)c4ncccc4c3N(C)S(C)(=O)=O)C2=O)c(OC)c1 [Compound 143, N-(7-(2,4-dimethoxybenzyl)-9-hydroxy-8-oxo-7,8-dihydro-6H-pyrrolo[3,4-g]quinolin-5-yl)-N-methylmethanesulfonamide]
EC50 (HIV-IIIb): 60 to 1000 nM | IC50 (HIV integrase): 60 to 1000 nM

CN(c1c2c(c(O)c3ncccc13)C(=O)N(Cc1ccc(F)cc1F)C2)S(C)(=O)=O [Compound 145, N-(7-(2,4-difluorobenzyl)-9-hydroxy-8-oxo-7,8-dihydro-6H-pyrrolo[3,4-g]quinolin-5-yl)-N-methylmethanesulfonamide]
EC50 (HIV-IIIb): < 60 nM | IC50 (HIV integrase): < 60 nM

CN(c1c2c(c(O)c3ncccc13)C(=O)N(Cc1ccc(F)cc1Cl)C2)S(C)(=O)=O [Compound 147, N-(7-(2-chloro-4-fluorobenzyl)-9-hydroxy-8-oxo-7,8-dihydro-6H-pyrrolo[3,4-g]quinolin-5-yl)-N-methylmethanesulfonamide]
EC50 (HIV-IIIb): < 60 nM | IC50 (HIV integrase): < 60 nM

CN(c1c2c(c(O)c3ncccc13)C(=O)N(Cc1ccc(F)cn1)C2)S(C)(=O)=O [Compound 151, N-(7-((5-fluoropyridin-2-yl)methyl)-9-hydroxy-8-oxo-7,8-dihydro-6H-pyrrolo[3,4-g]quinolin-5-yl)-N-methylmethanesulfonamide]
EC50 (HIV-IIIb): 60 to 1000 nM | IC50 (HIV integrase): 60 to 1000 nM

CN(c1c2c(c(O)c3ncccc13)C(=O)N(Cc1ccc(F)cc1)C2=O)S(C)(=O)=O [Compound 152, N-(7-(4-fluorobenzyl)-9-hydroxy-6,8-dioxo-7,8-dihydro-6H-pyrrolo[3,4-g]quinolin-5-yl)-N-methylmethanesulfonamide]
EC50 (HIV-IIIb): > 1000 nM | IC50 (HIV integrase): < 60 nM

CN(C)c1cccc2c(S(=O)(=O)N(C)c3c4c(c(O)c5ncccc35)C(=O)N(Cc3ccc(F)cc3)C4)cccc12 [Compound 154, 5-(dimethylamino)-N-(7-(4-fluorobenzyl)-9-hydroxy-8-oxo-7,8-dihydro-6H-pyrrolo[3,4-g]quinolin-5-yl)-N-methylnaphthalene-1-sulfonamide]
EC50 (HIV-IIIb): > 1000 nM | IC50 (HIV integrase): 60 to 1000 nM

CN(c1c2c(c(O)c3ncccc13)C(=O)N(Cc1ccc(F)cc1)C2)S(=O)(=O)CC(F)(F)F [Compound 156, 2,2,2-trifluoro-N-(7-(4-fluorobenzyl)-9-hydroxy-8-oxo-7,8-dihydro-6H-pyrrolo[3,4-g]quinolin-5-yl)-N-methylethane-1-sulfonamide]
EC50 (HIV-IIIb): 60 to 1000 nM | IC50 (HIV integrase): < 60 nM

CN(c1c2c(c(O)c3ncccc13)C(=O)N(Cc1ccc(F)cc1)C2)S(=O)(=O)c1ccccn1 [Compound 158, N-(7-(4-fluorobenzyl)-9-hydroxy-8-oxo-7,8-dihydro-6H-pyrrolo[3,4-g]quinolin-5-yl)-N-methylpyridine-2-sulfonamide]
EC50 (HIV-IIIb): < 60 nM | IC50 (HIV integrase): 60 to 1000 nM

CN(c1c2c(c(O)c3ncccc13)C(=O)N(Cc1ccc(F)cc1)C2)S(=O)(=O)c1ccc(N2CCOCC2)nc1 [Compound 159, N-(7-(4-fluorobenzyl)-9-hydroxy-8-oxo-7,8-dihydro-6H-pyrrolo[3,4-g]quinolin-5-yl)-N-methyl-6-morpholinopyridine-3-sulfonamide]
EC50 (HIV-IIIb): 60 to 1000 nM | IC50 (HIV integrase): 60 to 1000 nM

CC(=O)Nc1nc(C)c(S(=O)(=O)N(C)c2c3c(c(O)c4ncccc24)C(=O)N(Cc2ccc(F)cc2)C3)s1 [Compound 160, N-(5-(N-(7-(4-fluorobenzyl)-9-hydroxy-8-oxo-7,8-dihydro-6H-pyrrolo[3,4-g]quinolin-5-yl)-N-methylsulfamoyl)-4-methylthiazol-2-yl)acetamide]
EC50 (HIV-IIIb): 60 to 1000 nM | IC50 (HIV integrase): 60 to 1000 nM
